# Data: DBAASP
# Assays:
# Assay in all cases: ≥ marks a high value that may be exact or a test limit, other limits are often not marked, values filed in µg/mL are converted to µM
# [1] = tested on: Staphylococcus aureus ATCC 25923
# [2] = tested on: Candida albicans ATCC 20032
# [3] = tested on: Escherichia coli ATCC 25922
# [4] = tested on: Bacillus subtilis ATCC 6633
# [5] = tested on: Candida albicans ATCC 90028
# [6] = tested on: Klebsiella pneumoniae KK3 9904
# [7] = tested on: Staphylococcus aureus NCTC 8325
# [8] = tested on: Enterobacter cloacae NHTCC 53001
# [9] = tested on: Proteus mirabilis ATCC 25933
# [10] = tested on: Pseudomonas aeruginosa ATCC 27853
# [11] = tested on: Enterococcus faecalis ATCC 29212
# [12] = tested on: Staphylococcus epidermidis RP62A
# [13] = tested on: Pseudomonas aeruginosa 9
# [14] = tested on: Enterococcus faecium mic80
# [15] = tested on: Pseudomonas aeruginosa 198
# [16] = tested on: Pseudomonas aeruginosa H1027
# [17] = tested on: Pseudomonas aeruginosa LES400
# [18] = tested on: Enterobacter cloacae 218R
# [19] = tested on: Klebsiella pneumoniae ESBL 63575
# [20] = tested on: Escherichia coli ESBL 64771
# [21] = tested on: Klebsiella pneumoniae ESBL 61962
# [22] = tested on: Staphylococcus aureus C623
# [23] = tested on: Enterococcus faecium t62764
# [24] = tested on: Pseudomonas aeruginosa PAO1 H103
# [25] = tested on: Escherichia coli ESBL 63103
# [26] = tested on: Enterococcus faecalis W61950
# [27] = tested on: Pseudomonas aeruginosa 213
# [28] = tested on: Pseudomonas aeruginosa H1030
# [29] = tested on: Enterococcus faecalis f43559
# [30] = tested on: Stenotrophomonas maltophilia ATCC 13637
# [31] = tested on: Streptococcus mutans UA159
# [32] = tested on: Streptococcus sanguinis ATCC 10556
# [33] = tested on: Streptococcus sobrinus ATCC 6715
# [34] = tested on: Candida albicans NCTC 3179
smiles,measurement,setting,value
CC[C@H](C)[C@H](NC(=O)CN)C(=O)NCC(=O)NCC(=O)N[C@@H](C)C(=O)N[C@@H](CC(C)C)C(=O)N[C@@H](CC(C)C)C(=O)N[C@@H](CO)C(=O)N[C@@H](C)C(=O)NCC(=O)N[C@@H](CCCCN)C(=O)N[C@@H](CO)C(=O)N[C@@H](C)C(=O)N[C@@H](CC(C)C)C(=O)N[C@@H](CCCCN)C(=O)NCC(=O)N[C@@H](CC(C)C)C(=O)N[C@@H](C)C(=O)N[C@@H](CCCCN)C(=O)NCC(=O)N[C@@H](CC(C)C)C(=O)N[C@@H](C)C(=O)N[C@@H](CCC(=O)O)C(=O)N[C@@H](Cc1cnc[nH]1)C(=O)N[C@@H](CC(C)C)C(N)=O [GIGGALLSAGKSALKGLAKGLAEHL],MIC,[1],8.06 µM
same,MIC,[2],≥ 42.9 µM
same,MIC,[3],> 42.9 µM
same,MIC,[4],≥ 42.9 µM
CC[C@H](C)[C@H](NC(=O)CN)C(=O)N[C@@H](CCCCN)C(=O)N[C@@H](CC(=O)O)C(=O)N[C@@H](Cc1c[nH]c2ccccc12)C(=O)N[C@H](C(=O)N[C@@H](CCCCN)C(=O)NCC(=O)N[C@@H](C)C(=O)N[C@@H](C)C(=O)N[C@@H](CCCCN)C(=O)N[C@@H](CCCCN)C(=O)N[C@@H](CC(C)C)C(=O)N[C@H](C(=O)N[C@@H](CCCCN)C(=O)N[C@H](C(=O)N[C@H](C(=O)N[C@@H](C)C(=O)N[C@@H](CO)C(=O)N[C@@H](Cc1cnc[nH]1)C(=O)N[C@H](C(=O)N[C@@H](C)C(=O)N[C@@H](CC(N)=O)C(=O)N[C@@H](CCC(N)=O)C(=O)O)[C@@H](C)CC)C(C)C)[C@@H](C)O)[C@@H](C)CC)[C@@H](C)CC [GIKDWIKGAAKKLIKTVASHIANQ],MIC,[5],≥ 100 µM
same,MIC,[6],13 µM
same,MIC,[7],≥ 50 µM
same,MIC,[8],6 µM
same,MIC,[3],6 µM
same,MIC,[9],≥ 100 µM
same,MIC,[10],13 µM
same,MIC,[11],> 100 µM
same,MIC,[12],13 µM
CC[C@H](C)[C@H](N)C(=O)N[C@@H](Cc1c[nH]c2ccccc12)C(=O)N[C@@H](Cc1c[nH]c2ccccc12)C(=O)N[C@@H](CCCCN)C(=O)N[C@@H](Cc1c[nH]c2ccccc12)C(=O)N[C@@H](CCCN=C(N)N)C(=O)N[C@@H](CCCN=C(N)N)C(=O)N[C@@H](Cc1c[nH]c2ccccc12)C(=O)N[C@H](C(=O)O)C(C)C [IWWKWRRWV],MIC,[1],1.48 µM
same,MIC,[13],24 µM
same,MIC,[14],2.97 µM
same,MIC,[15],6 µM
same,MIC,[16],2.97 µM
same,MIC,[17],6 µM
same,MIC,[18],2.97 µM
same,MIC,[19],6 µM
same,MIC,[20],2.97 µM
same,MIC,[21],≥ 48 µM
same,MIC,[22],1.48 µM
same,MIC,[23],1.48 µM
same,MIC,[24],2.97 µM
same,MIC,[25],12 µM
same,MIC,[26],24 µM
same,MIC,[27],24 µM
same,MIC,[11],12 µM
same,MIC,[28],24 µM
same,MIC,[29],24 µM
same,MIC,[30],0.777 µM
NCCCC[C@H](NC(=O)[C@H](CCCCN)NC(=O)[C@H](Cc1ccccc1)NC(=O)[C@H](Cc1ccccc1)NC(=O)[C@H](CCCCN)NC(=O)[C@H](CCCCN)NC(=O)[C@H](Cc1ccccc1)NC(=O)[C@H](Cc1ccccc1)NC(=O)[C@H](CCCCN)NC(=O)[C@@H](N)Cc1ccccc1)C(=O)N[C@@H](Cc1c[nH]c2ccccc12)C(=O)O [FKFFKKFFKKW],MIC,[31],10.1 µM
same,MIC,[32],20.2 µM
same,MIC,[33],10.1 µM
CC[C@H](C)[C@H](NC(=O)CN)C(=O)NCC(=O)NCC(=O)N[C@@H](C)C(=O)N[C@@H](CC(C)C)C(=O)N[C@@H](CC(C)C)C(=O)N[C@@H](CO)C(=O)N[C@@H](C)C(=O)NCC(=O)N[C@@H](CCCCN)C(=O)N[C@@H](C)C(=O)N[C@@H](C)C(=O)N[C@@H](CC(C)C)C(=O)N[C@@H](CCCCN)C(=O)NCC(=O)N[C@@H](CC(C)C)C(=O)N[C@@H](C)C(=O)N[C@@H](CCCCN)C(=O)N[C@H](C(=O)N[C@@H](CC(C)C)C(=O)N[C@H](C(N)=O)C(C)C)C(C)C [GIGGALLSAGKAALKGLAKVLV],MIC,[1],4.68 µM
same,MIC,[2],9.37 µM
same,MIC,[3],18.7 µM
same,MIC,[4],4.68 µM
CC(C)C[C@H](NC(=O)[C@H](C)NC(=O)[C@H](CCCCN)NC(=O)[C@H](C)NC(=O)[C@H](C)NC(=O)CNC(=O)[C@H](CCCCN)NC(=O)[C@H](CC(C)C)NC(=O)[C@H](CC(C)C)NC(=O)[C@H](CC(=O)O)NC(=O)[C@H](CCCCN)NC(=O)[C@H](Cc1ccccc1)NC(=O)CN)C(=O)N[C@H](C(=O)N[C@@H](CCCCN)C(=O)N[C@H](C(=O)N[C@H](C(=O)N[C@@H](CC(C)C)C(=O)N[C@@H](Cc1ccccc1)C(=O)O)C(C)C)[C@@H](C)O)C(C)C [GFKDLLKGAAKALVKTVLF],MIC,[5],≥ 100 µM
same,MIC,[6],25 µM
same,MIC,[7],≥ 50 µM
same,MIC,[8],13 µM
same,MIC,[3],6 µM
same,MIC,[9],≥ 100 µM
same,MIC,[10],50 µM
same,MIC,[11],> 100 µM
same,MIC,[12],25 µM
CC[C@H](C)[C@H](NC(=O)[C@H](CCCN=C(N)N)NC(=O)[C@H](C)NC(=O)[C@H](CC(C)C)NC(=O)[C@@H](N)CCCN=C(N)N)C(=O)N[C@H](C(=O)N[C@H](C(=O)N[C@H](C(=O)N[C@@H](CCCN=C(N)N)C(=O)N[C@H](C(=O)N[C@@H](C)C(=O)N[C@@H](CCCN=C(N)N)C(=O)O)C(C)C)[C@@H](C)CC)C(C)C)C(C)C [RLARIVVIRVAR],MIC,[1],12 µM
same,MIC,[13],≥ 95 µM
same,MIC,[14],5.91 µM
same,MIC,[15],≥ 47.1 µM
same,MIC,[16],5.91 µM
same,MIC,[17],≥ 47.1 µM
same,MIC,[18],12 µM
same,MIC,[19],≥ 95 µM
same,MIC,[20],12 µM
same,MIC,[21],≥ 95 µM
same,MIC,[22],12 µM
same,MIC,[23],1.48 µM
same,MIC,[24],23.9 µM
same,MIC,[25],12 µM
same,MIC,[26],23.9 µM
same,MIC,[27],≥ 95 µM
same,MIC,[11],5.91 µM
same,MIC,[28],≥ 47.1 µM
same,MIC,[29],23.9 µM
same,MIC,[30],1.48 µM
CC[C@H](C)[C@H](NC(=O)[C@H](CCCCN)NC(=O)[C@@H](NC(=O)[C@@H](NC(=O)[C@H](CC(N)=O)NC(=O)[C@H](CCC(=O)O)NC(=O)[C@H](CCC(=O)O)NC(=O)[C@H](CCC(N)=O)NC(=O)[C@@H](N)CCC(=O)O)C(C)C)C(C)C)C(=O)N[C@@H](CCC(N)=O)C(=O)N[C@@H](C)C(=O)N[C@@H](Cc1ccccc1)C(=O)N[C@@H](Cc1c[nH]c2ccccc12)C(=O)N[C@@H](CCCCN)C(=O)NCC(=O)N[C@@H](Cc1ccc(O)cc1)C(=O)N[C@@H](CCCCN)C(=O)N[C@@H](CCC(N)=O)C(=O)N[C@@H](CCCN=C(N)N)C(=O)N[C@@H](CCCCN)C(=O)N[C@@H](CCC(=O)O)C(=O)N[C@@H](Cc1ccc(O)cc1)C(=O)N[C@@H](CCSC)C(=O)O [EQEENVVKIQAFWKGYKQRKEYM],MIC,[1],32.1 µM
same,MIC,[3],2.15 µM
same,MIC,[34],28.3 µM
